Experimental data as given in patent publication US20250230193A1, “CYCLIC COMPOUND HAVING SELECTIVE KRAS INHIBITORY EFFECT ON HRAS AND NRAS” (CHUGAI SEIYAKU KABUSHIKI KAISHA, priority 2022, published 2025).

Key:
[1] = system: human lung cancer strain NCI-H441; assay: cells; conditions: NCI-H441, 96 h, read-out: NCI-H441 IC50 (nM)
[2] = target: GDP-bound HRAS wild-type protein (Homo sapiens, UniProt P01112); assay: Binding to HRAS by surface plasmon resonance (SPR), Single Cycle Kinetics; conditions: SPR; KD ratio class
Sequence of GDP-bound HRAS wild-type protein (P01112 whole entry): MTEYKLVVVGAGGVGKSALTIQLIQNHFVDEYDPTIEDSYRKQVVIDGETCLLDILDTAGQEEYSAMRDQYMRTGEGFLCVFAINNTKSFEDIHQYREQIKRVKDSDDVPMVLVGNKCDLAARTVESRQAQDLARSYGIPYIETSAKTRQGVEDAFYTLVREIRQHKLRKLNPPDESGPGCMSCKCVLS

[3] = target: GDP-bound NRAS wild-type protein (Homo sapiens, UniProt P01111); assay: Binding to NRAS by surface plasmon resonance (SPR), Single Cycle Kinetics; conditions: SPR; KD ratio class
Sequence of GDP-bound NRAS wild-type protein (P01111 whole entry): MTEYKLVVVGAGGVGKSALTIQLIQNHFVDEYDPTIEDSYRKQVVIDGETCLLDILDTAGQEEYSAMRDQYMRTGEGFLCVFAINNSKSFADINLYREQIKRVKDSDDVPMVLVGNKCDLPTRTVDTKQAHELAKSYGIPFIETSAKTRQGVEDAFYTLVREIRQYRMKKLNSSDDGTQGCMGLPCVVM

| Structure (SMILES) | IC50 [1] [nM] | HRAS/KRAS (ratio of KD value for GDP-bound HRAS wild-type protein to KD value for KRAS) [2] | NRAS/KRAS (ratio of KD value for GDP-bound NRAS wild-type protein to KD value for KRAS) [3] |
| --- | --- | --- | --- |
| CCO[C@@H]1C[C@H]2C(=O)NC3(CC(C)(C)C3)C(=O)N(C)[C@@H](C3CCCC3)C(=O)N(C)[C@H](C(=O)N(C)C)CC(=O)N(C)[C@@H](CC)C(=O)N[C@@H]([C@@H](C)CC)C(=O)N(C)CC(=O)N(C)[C@H]3C/C=C\CCN(C3=O)[C@@H](Cc3ccc(C(F)(F)F)cc3)C(=O)N(C)CC(=O)N[C@@H](CCc3ccc(C(F)(F)F)c(OC)c3)C(=O)N2C1 [PP1559] | 1.8 | A (a compound having 10 or more and less than 20 is denoted as A) | A (a compound having 10 or more and less than 20 is denoted as A) |
| CCC[C@H]1C(=O)N[C@@H]([C@@H](C)CC)C(=O)N(C)CC(=O)N(C)[C@H]2C/C=C\CCN(C2=O)[C@@H](Cc2ccc(C(F)(F)F)cc2)C(=O)N(C)CC(=O)N[C@@H](CCc2ccc(C(F)(F)F)c(OC)c2)C(=O)N2C[C@H](OCC)C[C@H]2C(=O)NC2(CC(C)(C)C2)C(=O)N(C)[C@@H](C2CCCC2)C(=O)N(C)[C@H](C(=O)N(C)C)CC(=O)N1C [PP1560] | 1.8 | B (a compound having 3 or more and less than 10 is denoted as B) | A (a compound having 10 or more and less than 20 is denoted as A) |
| CCCC[C@H]1C(=O)N[C@@H]([C@@H](C)CC)C(=O)N(C)CC(=O)N(C)[C@H]2C/C=C\CCN(C2=O)[C@@H](Cc2ccc(C(F)(F)F)cc2)C(=O)N(C)CC(=O)N[C@@H](CCc2ccc(C(F)(F)F)c(OC)c2)C(=O)N2C[C@H](OCC)C[C@H]2C(=O)NC2(CC(C)(C)C2)C(=O)N(C)[C@@H](C2CCCC2)C(=O)N(C)[C@H](C(=O)N(C)C)CC(=O)N1C [PP1561] | 2.7 | B (a compound having 3 or more and less than 10 is denoted as B) | A (a compound having 10 or more and less than 20 is denoted as A) |
| CCO[C@@H]1C[C@H]2C(=O)NC3(CC(C)(C)C3)C(=O)N(C)[C@@H](C3CCCC3)C(=O)N(C)[C@H](C(=O)N(C)C)CC(=O)N(C)[C@@H](CC(C)C)C(=O)N[C@@H]([C@@H](C)CC)C(=O)N(C)CC(=O)N(C)[C@H]3C/C=C\CCN(C3=O)[C@@H](Cc3ccc(C(F)(F)F)cc3)C(=O)N(C)CC(=O)N[C@@H](CCc3ccc(C(F)(F)F)c(OC)c3)C(=O)N2C1 [PP1562] | 1.7 | A (a compound having 10 or more and less than 20 is denoted as A) | A (a compound having 10 or more and less than 20 is denoted as A) |
| CCO[C@@H]1C[C@H]2C(=O)NC3(CC(C)(C)C3)C(=O)N(C)[C@@H](C3CCCC3)C(=O)N(C)[C@H](C(=O)N(C)C)CC(=O)N(C)[C@@H](CC3CC3)C(=O)N[C@@H]([C@@H](C)CC)C(=O)N(C)CC(=O)N(C)[C@H]3C/C=C\CCN(C3=O)[C@@H](Cc3ccc(C(F)(F)F)cc3)C(=O)N(C)CC(=O)N[C@@H](CCc3ccc(C(F)(F)F)c(OC)c3)C(=O)N2C1 [PP1563] | 2.6 | A (a compound having 10 or more and less than 20 is denoted as A) | A (a compound having 10 or more and less than 20 is denoted as A) |
| CCO[C@@H]1C[C@H]2C(=O)NC3(CC(C)(C)C3)C(=O)N(C)[C@@H](C3CCCC3)C(=O)N(C)[C@H](C(=O)N(C)C)CC(=O)N(C)[C@@H](CC3CCC3)C(=O)N[C@@H]([C@@H](C)CC)C(=O)N(C)CC(=O)N(C)[C@H]3C/C=C\CCN(C3=O)[C@@H](Cc3ccc(C(F)(F)F)cc3)C(=O)N(C)CC(=O)N[C@@H](CCc3ccc(C(F)(F)F)c(OC)c3)C(=O)N2C1 [PP1564] | 3 | A (a compound having 10 or more and less than 20 is denoted as A) | A (a compound having 10 or more and less than 20 is denoted as A) |
| CCO[C@@H]1C[C@H]2C(=O)NC3(CC(C)(C)C3)C(=O)N(C)[C@@H](C3CCCC3)C(=O)N(C)[C@H](C(=O)N(C)C)CC(=O)N(C)[C@@H](CC3CCCC3)C(=O)N[C@@H]([C@@H](C)CC)C(=O)N(C)CC(=O)N(C)[C@H]3C/C=C\CCN(C3=O)[C@@H](Cc3ccc(C(F)(F)F)cc3)C(=O)N(C)CC(=O)N[C@@H](CCc3ccc(C(F)(F)F)c(OC)c3)C(=O)N2C1 [PP1565] | 6.5 | B (a compound having 3 or more and less than 10 is denoted as B) | A (a compound having 10 or more and less than 20 is denoted as A) |
| CC[C@H](C)[C@@H]1NC(=O)[C@H](CC(C)C)N(C)C(=O)C[C@@H](C(=O)N(C)C)N(C)C(=O)[C@H](C2CCCC2)N(C)C(=O)C2(CC(C)(C)C2)NC(=O)[C@@H]2C[C@@H](F)CN2C(=O)[C@H](CCc2cc(F)c(C(F)(F)F)c(F)c2)NC(=O)CN(C)C(=O)[C@H](Cc2ccc(C(F)(F)F)cc2)N2CC/C=C\C[C@@H](C2=O)N(C)C(=O)CN(C)C1=O [PP1566] | 2.3 | A (a compound having 10 or more and less than 20 is denoted as A) | A (a compound having 10 or more and less than 20 is denoted as A) |
| CCO[C@@H]1C[C@H]2C(=O)NC3(CC(C)(C)C3)C(=O)N(C)[C@@H](C3CCCC3)C(=O)N(C)[C@H](C(=O)N(C)C)CC(=O)N(C)[C@@H](CC3CC3)C(=O)N[C@@H]([C@@H](C)CC)C(=O)N(C)CC(=O)N(C)[C@H]3C/C=C\CCN(C3=O)[C@@H](Cc3ccc(C(F)(F)F)cc3)C(=O)N(C)CC(=O)N[C@@H](CCc3cc(F)c(C(F)(F)F)c(F)c3)C(=O)N2C1 [PP1568] | 2.2 | A (a compound having 10 or more and less than 20 is denoted as A) | A (a compound having 10 or more and less than 20 is denoted as A) |
| CCCOC[C@H]1C(=O)N[C@@H]([C@@H](C)CC)C(=O)N(C)CC(=O)N(C)[C@H]2C/C=C\CCN(C2=O)[C@@H](Cc2ccc(C(F)(F)F)cc2)C(=O)N(C)CC(=O)N[C@@H](CCc2cc(F)c(C(F)(F)F)c(F)c2)C(=O)N2C[C@H](OCC)C[C@H]2C(=O)NC2(CCC2)C(=O)N(C)[C@@H](C2CCCC2)C(=O)N(C)[C@H](C(=O)N(C)CC)CC(=O)N1C [PP1569] | 2.8 | B (a compound having 3 or more and less than 10 is denoted as B) | A (a compound having 10 or more and less than 20 is denoted as A) |
| CC[C@H](C)[C@@H]1NC(=O)[C@H](CC2CC2)N(C)C(=O)C[C@@H](C(=O)N(C)CC)N(C)C(=O)[C@H](C2CCCC2)N(C)C(=O)C2(CC(C)(C)C2)NC(=O)[C@@H]2C[C@@H](F)CN2C(=O)[C@H](CCc2cc(F)c(C(F)(F)F)c(F)c2)NC(=O)CN(C)C(=O)[C@H](Cc2ccc(C(F)(F)F)cc2)N2CC/C=C\C[C@@H](C2=O)N(C)C(=O)CN(C)C1=O [PP1570] | 2.6 | A (a compound having 10 or more and less than 20 is denoted as A) | AA (a compound having 20 or more is denoted as AA) |
| CC[C@H](C)[C@@H]1NC(=O)[C@H](CC2CC2)N(C)C(=O)C[C@@H](C(=O)N(CC)CC)N(C)C(=O)[C@H](C2CCCC2)N(C)C(=O)C2(CC(C)(C)C2)NC(=O)[C@@H]2C[C@@H](F)CN2C(=O)[C@H](CCc2cc(F)c(C(F)(F)F)c(F)c2)NC(=O)CN(C)C(=O)[C@H](Cc2ccc(C(F)(F)F)cc2)N2CC/C=C\C[C@@H](C2=O)N(C)C(=O)CN(C)C1=O [PP1571] | 6.8 | A (a compound having 10 or more and less than 20 is denoted as A) | A (a compound having 10 or more and less than 20 is denoted as A) |
| CCCOC[C@H]1C(=O)N[C@@H]([C@@H](C)CC)C(=O)N(C)CC(=O)N(C)[C@H]2C/C=C\CCN(C2=O)[C@@H](Cc2ccc(C(F)(F)F)cc2)C(=O)N(C)CC(=O)N[C@@H](CCc2cc(F)c(C(F)(F)F)c(F)c2)C(=O)N2C[C@H](OCC)C[C@H]2C(=O)NC2(CC(C)(C)C2)C(=O)N(C)[C@@H](C2CCCC2)C(=O)N(C)[C@H](C(=O)N(C)CC)CC(=O)N1C [PP1572] | 3.6 | A (a compound having 10 or more and less than 20 is denoted as A) | A (a compound having 10 or more and less than 20 is denoted as A) |
| CCO[C@@H]1C[C@H]2C(=O)NC3(CCC3)C(=O)N(C)[C@@H](C3CCCC3)C(=O)N(C)[C@H](C(=O)N(C)CC)CC(=O)N(C)[C@@H](CC3CCCC3)C(=O)N[C@@H]([C@@H](C)CC)C(=O)N(C)CC(=O)N(C)[C@H]3C/C=C\CCN(C3=O)[C@@H](Cc3ccc(C(F)(F)F)cc3)C(=O)N(C)CC(=O)N[C@@H](CCc3ccc(C(F)(F)F)c(OC)c3)C(=O)N2C1 [PP1573] | 5.2 | A (a compound having 10 or more and less than 20 is denoted as A) | A (a compound having 10 or more and less than 20 is denoted as A) |
| CCCOC[C@H]1C(=O)N[C@@H]([C@@H](C)CC)C(=O)N(C)CC(=O)N(C)[C@H]2C/C=C\CCN(C2=O)[C@@H](Cc2ccc(C(F)(F)F)cc2)C(=O)N(C)CC(=O)N[C@@H](CCc2cc(F)c(C(F)(F)F)c(F)c2)C(=O)N2C[C@H](OCC)C[C@H]2C(=O)NC2(CC(C)(C)C2)C(=O)N(C)[C@@H](C2CCCC2)C(=O)N(C)[C@H](C(=O)N(CC)CC)CC(=O)N1C [PP1575] | 11.1 | B (a compound having 3 or more and less than 10 is denoted as B) | B (a compound having 3 or more and less than 10 is denoted as B) |
